Source: patent US20010055627A1, “Compositions And Methods For Regulating Lipoproteins And Hypercholesterolemia With Limonoids, Flavonoids And Tocotrienols” (priority 1997, published 2001)
Values after ≈ are worked out from the molar mass of the structure shown. Read-outs that look alike come from different tables or passages of the source.

Tests used:
[1] = test system: apo-B production in HepG2 cells; assay: Apo-B content of medium of HepG2 cells by ELISA; assay type: cell-based, human; details: for effect on apo-B levels/content / reduction of medium apo-B levels: HepG2, 24 h; for reduction of medium apo-B levels: 50 μg/mL, per mg cell protein, versus control
Description: Cell Culture: Confluent HepG2 cells were preincubated in minimum essential medium (MEM) containing 1.0% bovine serum albumin (BSA) for 24 hours. This was followed by a second 24 hour incubation with or without various non-toxic concentrations of naringenin or hesperitin (7.5-60 ug/ml). At the end of the second 24 hour incubation, the apo-B content of the media was determined by enzyme-lined immunosorbent assay (ELISA) (Young et al., 1986, Clin. Chem. 32:1484-1490).
Protein Determination: The soluble cellular protein was extracted and measured using Pierce Coomassie Plus Protein Assay.
(§1) The limonoids, limonin and nomilin were examined for the cholesterol-lowering potential in HepG2 cells. Confluent HepG2 cells were preincubated for 24 h in a lipoprotein-free medium in which the fetal bovine serum was replaced by albumin to inhibit cell proliferation and to stimulate synthesis of cholesterol-containing lipoproteins. Cells were subsequently incubated for another 24 h in the same medium in the presence or absence of limonoids at the highest concentrations sustaining 100% cell viability, as determined by 3-(4,5-dimethylthiazol-2-yl)-2,5-diphenyltetrazolium bromide (MTT) viability assay. The limonoids were added to the cell culture medium after solubilization in dimethyl sulfoxide (DMSO). At the end of the incubation, culture media were collected and the concentration of the LDL structural protein, apo-B, was measured by Elisa by procedures already described in Section 6.0. Amount of lipoprotein-associated apo-B in the media (net apo-B secretion) was determined as described previously, calculated per mg cell protein and expressed as percent of control.
Apo-B productioon (the structural protein of LDL) was studied in HepG2 cells, using a 24. The effect of flavonoids on apo-B production after 24 h incubation of cells and measuring apo-B by Elisa as described above. All flavonoids, reduced the apo-B levels dose dependently.

[2] = test system: casein-induced hypercholesterolemia; assay: Serum lipoprotein cholesterol in rabbits fed cholesterol-free casein diet with citrus juice; assay type: in vivo; details: rabbits on casein diet, 3 weeks; hesperitin given as orange juice, naringenin as grapefruit juice (two times regular strength)
Excerpt: The effect of naringenin and hesperetin on casein-induced hypercholesterolemia was studied in rabbits. In each of the two experiments, rabbits were assigned to thee experimental groups. Each group was given semipurified, cholesterol-free casein diet and either water, orange juice or grapefruit juice to drink. The control group received water to drink and the experimental groups were given either orange juice or grapefruit juice (reconstituted concentrates made up to two times the regular strength). […] FIG. 1 depicts the design of the experiment.
Dextrose in the diets of the hesperitin (orange juice) and naringenin (grapefruit juice) groups was reduced to account for the sugar consumed via citrus juices. All other dietary components were left unchanged. (Table 1).
Serum Analysis: At the end of the study, VLDL, LDL and HDL fractions were separated by discontinuous density gradient ultracentrifugation. Total cholesterol in serum and in each lipoprotein fraction were measured using the Boehinger Manheim CHOL kit (Manheim, Germany).

HepG2 cells = assay: MTT viability assay, highest non-toxic concentration; assay type: cell-based, human; details: HepG2, 100% cell viability by MTT
Description: as §1

[3] = test system: 14C-acetate incorporation into cellular lipids in HepG2 cells; assay: 14C-acetate incorporation into cellular lipids of HepG2 cells; assay type: cell-based, human; details: HepG2, 24 h, 50 μg/ml (highest non-toxic concentration)
Description: ^14C-acetate Incorporation: To determine whether exposure to flavonoids can also alter intracellular lipid metabolism, confluent HepG2 cells were incubated for 24 hours with the highest apo-B-reducing, non-toxic concentration of these flavonoids, in the presence of ^14C-acetate (0.5u Ci/ml medium). Radiolabelled lipids were then extracted from cells using heptane/isopropyl alcohol (3:2, v/v), and separated by thin layer chomatrography. A hexane/ethyl ether/acetic acid solvent (75:25:1, v/v) was used to separate cholesterol, cholesterol esters and triglycerides. Lipid fractions were scraped into scintillation vials and the radioactivity was measured using Beckman Scintillation Counter.
To determine whether exposure to limonin altered intracellular lipid metabolism, confluent HepG2 cells were incubated for 24 h with or without the highest non-cytotoxic concentration of limonin. During the last 5 h of the incubation, ^14C-acetate (0.5 μCi/mL) was added to the medium. The extraction and separation of cellular lipids was done described above.

[4] = test system: hamster model of experimental hypercholesterolemia; assay: Serum lipids in hamster model of experimental hypercholesterolemia (casein, cholesterol-enriched diet); assay type: in vivo, Golden Syrian hamsters; details: hamsters; for HDL cholesterol (serum) / Total cholesterol (serum) / Total triacylglycerols (serum) / VLDL + LDL Cholesterol (serum) / VLDL + LDL/HDL cholesterol ratio: 35 days on diet; for HDL cholesterol (serum) / Total cholesterol (serum) / Total triacylglycerols (serum): supplement level as in label; for HDL cholesterol (serum) / Total cholesterol (serum) / VLDL + LDL Cholesterol (serum) / VLDL + LDL/HDL cholesterol ratio: mean; for Total triacylglycerols (serum): means ± SD; for VLDL + LDL Cholesterol (serum): difference between total and HDL cholesterol
Description: Extracted flavonoids and a tocotrienol-rich preparation from palm oil, all provided by KGK Synergize Inc. London, Ontario, were tested in the hamster model of experimental hypercholesterolemia. The purpose of the study was to establish whether in this model, 2% supplementation of casein diet with palm tocotrienol preparation containing 70% of pure tocotrienols α-, γ- and δ-(TTP), or a similar 2% supplementation with flavonoids, hesperidin extrated from oranges and naringin extrated from grapefruit, could lower the elevated LDL cholesterol levels induced by casein. A further purpose of the study was to determine whether supplementation with 2% TTP in combination with 2% hesperidin or 2% naringin could result in synergistic cholesterol-lowering effects. Synergistic cholesterol-lowering responses have been observed for combinations of tocotrienols and citrus flavonoids in human liver cell line HepG2. The additional goal of this study was to establish whether in the same hamster model of hypercholesterolemia, 0.13% supplementation of casein diet with a mixture of polymethoxylated flavones from tangerines (PMF) could lower the elevated LDL cholesterol levels induced by casein. This experiment was based on previous tests In vitro using human liver cell line HepG2, in which principal flavonoids from PMF, tangeretin and nobiletin, had much greater cholesterol-lowering potential than hesperetin or naringenin.
In hamsters, feeding a semipurified, casein-based, cholesterol-enriched diet for the period of 5 weeks induces experimental hypercholesterolemia associated with elevation of LDL cholesterol, similar to that observed in humans.
(§2) Fifty four male Golden Syrian hamsters weighing 100-120 g at arrival were housed individually in a constant temperature 21-24° C. and with 12 h light:dark cycle. The animals were fed ground chow diet for 1 week. Thereafter, they were divided into seven groups (six groups of 8 animals and one group of 6 animals), each with similar average body weight, and fed experimental diets for 35 days. Food and water were provided at libitum. Food consumption was estimated during the last two weeks of treatment, for thee consecutive days during each week.
(§3) The basal composition was similar to that described earlier. All diets contained 25% casein and 0.1% cholesterol. Experimental diets contained TTP and/or principal flavonoids, hesperidin or naringenin, added at indicated levels at the expense of rice flour.
At the end of the study, the animals were fasted overnight and blood samples were taken by heart puncture. Total cholesterol in whole serum and in HDL fraction as well as total triacylglycerols were measured by enzymatic timed-endpoint methods, using the Beckman Coulter reagents (CHOL Reagent, HDLD HDL Reagent and TG Triglycerides GPO Reagent, respectively). All measurements were performed using SYNCHON LX System. VLDL+LDL cholesterol concentrations were calculated as a difference between total and HDL cholesterol. Results obtained were analyzed by one-way ANOVA followed by Dunnet's or Student-Newman-Keuls test for all groups and additionally by t-test for the PMF vs. the control group. Significant differences were reported at p<0.05.

[5] = Growth performance of hamsters fed experimental diets; assay type: in vivo, Golden Syrian hamsters; details: supplement level as in label, means ± SD; for Growth Rate: diet for 35 days; for Food Consumption: last two weeks of treatment
Description: as §2, §3

[6] = Homo sapiens, HepG2, comparison of limonin and flavonoids, FIG. 5, read-out: IC50 apo-B content
[7] = five weeks, versus control diet, 2% in diet (PMF 0.13%)

In the case of `O=C1C[C@@H](c2ccc(O)cc2)Oc2cc(O)cc(O)c21` [naringenin], the “effect on apo-B levels/content” value [1] is reported as “reduced the apo-B content in a dose-dependent manner”, the IC50 ([1]; Homo sapiens, HepG2, 24 h incubation, ELISA, read-out: IC50 apo-B production) is reported as 48.5 µg/mL and the IC50 [1, 6] is reported as 48.5 µM. The “reduction of LDL cholesterol levels compared with those given water” value [2] was 32%.
With `CC1(C)O[C@H]2CC(=O)OC[C@]23[C@H]2CC[C@@]4(C)[C@H](c5ccoc5)OC(=O)[C@H]5O[C@]54[C@]2(C)C(=O)C[C@@H]13` [limonin] the highest non-toxic concentration (HepG2 cells) was 50 µg/mL, the “effect on apo-B levels/content” value [1] was “reduced the apo-B content in a dose-dependent manner” and the “reduction of medium apo-B levels” value [1] was 74%. For the same compound, the “IC50 concentration times lower than for both flavonoids (hesperetin, naringenin)” value ([1]; HepG2 apo-B) was 2-2.4 times, the IC50 [1, 6] was 20.5 µM and the “effect on 14C-acetate incorporation into cellular cholesterol, cholesteryl esters and triacylglycerols” value [3] was “no effect”.
In the case of `COc1ccc([C@@H]2CC(=O)c3c(O)cc(O)cc3O2)cc1O` [hesperetin], the “effect on apo-B levels/content” value [1] is reported as “reduced the apo-B content in a dose-dependent manner”, the “IC50 apo-B production” value ([1]; HepG2, 24 h incubation, ELISA) is reported as 43.0 µg/mL (≈ 142 µM) and the IC50 ([1]; HepG2, comparison of limonin and flavonoids, FIG. 5, read-out: IC50 apo-B content) is reported as 43 µM. For the same compound, the “reduction of LDL cholesterol levels compared with those given water” value [2] was 43%.
For `C[C@@H]1O[C@@H](O[C@H]2[C@H](Oc3cc(O)c4c(c3)O[C@H](c3ccc(O)cc3)CC4=O)O[C@H](CO)[C@@H](O)[C@@H]2O)[C@H](O)[C@H](O)[C@H]1O` [naringin], the “HDL cholesterol (serum)” value [4] was 3.89 mM/L, the “Total cholesterol (serum)” value [4] was 6.56 mM/L and the “Total triacylglycerols (serum)” value [4] was 3.58 ± 1.40 mM/L. For the same compound, the “VLDL + LDL Cholesterol (serum)” value [4] was 2.66 mM/L, the “VLDL + LDL/HDL cholesterol ratio” value [4] was 0.68 and the “Percent change HDL cholesterol” value ([4]; 35 days, versus control diet) was −11%. The “Percent change Total cholesterol” value ([4]; 35 days, versus control diet) was −11%, the “Percent change VLDL + LDL Cholesterol” value ([4]; 35 days, versus control diet) was −12% and the “reduction of serum HDL cholesterol” value [4, 7] was 11%. The “reduction of serum total cholesterol” value [4, 7] was 11%, the “Growth Rate” value [5] was 1.03 ± 0.26 g/day and the “Food Consumption” value [5] was 10.44 ± 2.36 g/day.
In the case of `COc1ccc(-c2cc(=O)c3c(OC)c(OC)c(OC)c(OC)c3o2)cc1` [tangeretin], the “IC50 apo-B production” value ([1]; HepG2, 24 h incubation, ELISA) is reported as 2.5 µg/mL (≈ 6.71 µM).
For `CC(=O)O[C@H]1CC(=O)OC(C)(C)[C@@H]2CC(=O)[C@]3(C)[C@H](CC[C@@]4(C)[C@H](c5ccoc5)OC(=O)[C@H]5O[C@]543)[C@@]12C` [nomilin], the “reduction of medium apo-B levels” value [1] was 40%.
In the case of `COc1ccc(-c2cc(=O)c3c(OC)c(OC)c(OC)c(OC)c3o2)cc1OC` [nobiletin], the “IC50 apo-B production” value ([1]; HepG2, 24 h incubation, ELISA) is reported as 4.9 µg/mL (≈ 12.2 µM).
In the case of `COc1ccc([C@@H]2CC(=O)c3c(O)cc(O[C@@H]4O[C@H](CO[C@@H]5O[C@@H](C)[C@H](O)[C@@H](O)[C@H]5O)[C@@H](O)[C@H](O)[C@H]4O)cc3O2)cc1O` [hesperidin], the “HDL cholesterol (serum)” value [4] is reported as 4.07 mM/L, the “Total cholesterol (serum)” value [4] is reported as 6.73 mM/L and the “Total triacylglycerols (serum)” value [4] is reported as 2.64 ± 1.47 mM/L. For the same compound, the “VLDL + LDL Cholesterol (serum)” value [4] was 2.66 mM/L, the “VLDL + LDL/HDL cholesterol ratio” value [4] was 0.66 and the “Percent change HDL cholesterol” value ([4]; 35 days, versus control diet) was −7%. The “Percent change Total cholesterol” value ([4]; 35 days, versus control diet) was −9%, the “Percent change Total triacylglycerols” value ([4]; 35 days, versus control diet) was −36% and the “Percent change VLDL + LDL Cholesterol” value ([4]; 35 days, versus control diet) was −12%. The “reduction of serum HDL cholesterol” value [4, 7] was 7%, the “reduction of serum total triacylglycerols” value [4, 7] was 36% and the “Growth Rate” value [5] was 0.98 ± 0.24 g/day. The “Food Consumption” value [5] was 13.15 ± 4.72 g/day.
